Source: paper PMC4065339, “Characterization of Family D DNA polymerase from Thermococcus sp. 9°N” (Extremophiles, 2014)
pIC50: −log10 of the molar value.

Columns and labels:
[1] = system: T1, polD (heterodimer of polD-S and polD-L); assay: [α-32P]-dCTP incorporation into primed M13mp18, acid precipitation; format: biochemical, Thermococcus sp. 9°N; details: 10 nM enzyme, 15 nM primed M13mp18, 50 µM dNTPs, ThermoPol buffer pH 8.8 (2 mM MgSO4), 65 °C, 20 min; read-out: not inhibited by up to 0.4 mM
T1 construct: gene polC; E. coli T7 Express/pRIL, untagged, co-expressed plasmids pERE1 and pERF5, co-purified heterodimer; with DNA polymerase II small subunit

[2] = target: T2, polB (9°Nm DNA polymerase; 9°N/E143D) (Thermococcus sp. 9oN-7, UniProt Q56366, E143D); assay: as above; format: biochemical
T2 construct: gene pol; commercial recombinant 9°Nm DNA polymerase (New England Biolabs), E143D variant in exonuclease domain; single subunit
T2 sequence (Q56366 1-775 E143D): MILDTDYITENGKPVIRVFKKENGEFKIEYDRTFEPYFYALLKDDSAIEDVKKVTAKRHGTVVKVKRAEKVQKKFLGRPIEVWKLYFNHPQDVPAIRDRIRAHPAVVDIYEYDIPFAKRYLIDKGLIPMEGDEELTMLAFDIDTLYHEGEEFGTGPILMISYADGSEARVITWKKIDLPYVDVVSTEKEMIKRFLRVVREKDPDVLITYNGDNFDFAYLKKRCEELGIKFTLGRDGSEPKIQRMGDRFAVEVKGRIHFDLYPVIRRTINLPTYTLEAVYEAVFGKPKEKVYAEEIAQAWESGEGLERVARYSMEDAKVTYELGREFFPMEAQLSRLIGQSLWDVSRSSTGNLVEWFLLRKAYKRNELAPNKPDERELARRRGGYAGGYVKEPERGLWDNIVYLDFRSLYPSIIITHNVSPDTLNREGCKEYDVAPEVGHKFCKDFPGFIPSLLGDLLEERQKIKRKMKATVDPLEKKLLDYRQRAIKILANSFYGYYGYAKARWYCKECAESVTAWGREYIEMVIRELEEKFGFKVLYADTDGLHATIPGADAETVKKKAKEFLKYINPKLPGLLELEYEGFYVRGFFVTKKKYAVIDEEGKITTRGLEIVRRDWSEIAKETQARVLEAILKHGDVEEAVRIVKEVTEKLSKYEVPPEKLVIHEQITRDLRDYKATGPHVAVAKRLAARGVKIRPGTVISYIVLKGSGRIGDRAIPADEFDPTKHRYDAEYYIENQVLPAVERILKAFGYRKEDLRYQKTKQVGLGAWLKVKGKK

C[C@@]1(CO)[C@H](O)CC[C@@]2(C)[C@H]1CC[C@H]1C[C@@H]3C[C@@]12CC[C@]3(O)CO [aphidicolin]
pIC50 [1]: < 3.40 | pIC50 [2]: 3.52
